Results from patent US8802353B2, “Compound for resist and radiation-sensitive composition specification” (Mitsubishi Gas Chemical Company, Inc., priority 2004, dated 2014).

Experiments:
Type in all cases: physicochemical
[1] = Ultraviolet-visible absorption spectra, absorptivity coefficient at 248 nm; settings: 0.01 g/L methanol solution
Procedure: From the ultraviolet-visible absorption spectra of a 0.01 g/L methanol solution of each of Compounds 103, 105 and 108 measured by an autographic spectrophotometer “UV-3100PC” manufactured by Shimadzu Corporation, the absorptivity coefficient at 248 nm of each compound was determined. The absorptivity coefficient was 43.4 L/(cm·g) for Compound 103, 47.4 L/(cm·g) for Compound 105, and 16.9 L/(cm·g) for Compound 108. The absorptivity coefficient is sufficiently larger than 15 L/(cm·g) in any of the compounds, to indicate that the compounds, particularly Compounds 103 and 105, are useful as the raw material of the compound B for forming shade masks. The compounds B produced from these compounds and the radiation-sensitive composition containing such compounds B also have a high absorptivity and are useful for forming shade masks.

[2] = Glass transition temperature, crystallization temperature and quantity of crystallization heat (DSC); settings: for Glass transition temperature: 20° C./min, nitrogen gas flow; for Glass transition temperature-Crystallization temperature: rating of the difference
Procedure: A sample (about 10 mg) placed in a non-sealed aluminum container was heated to a temperature higher than the melting point at a temperature rising rate of 20° C./min in a nitrogen gas flow (50 ml/min). After being rapidly cooled, the sample was again heated to a temperature higher than the melting point at a temperature rising rate of 20° C./min in a nitrogen gas flow (30 ml/min). After being rapidly cooled, the sample was again heated to 400° C. at a temperature rising rate of 20° C./min in a nitrogen gas flow (30 ml/min), to conduct a differential scanning calorimetric analysis using DSC/TA-50WS manufactured by Shimadzu Corporation. The middle point of the region at which the base line turned discontinuous (the point at which the specific heat reduced to half) was taken as the glass transition temperature (Tg) and the temperature of the exothermic peak after the discontinuous region was taken as the crystallization temperature. The quantity of crystallization heat was determined by the area of the region which was surrounded by the exothermic peak and the base line. The sample was rated A when meeting Tg≧130° C., and rated C when meeting Tg≦130° C. Also, the sample was rated A when meeting (glass transition temperature)−(crystallization temperature)≧70° C., and rated C when meeting (glass transition temperature)-(crystallization temperature)<70° C.

[3] = Film-forming property (spin-coated film on silicon wafer); design: key: rated C when the film was clouded or its surface was roughened; rated B when the film was partly clouded or roughened; rated A when the film had a good surface flatness without causing clouding; settings: 3% by weight solution spin-coated, 110° C. 3 min
Text: A 3% by weight solution of the compound B or a mixture (compound B and polyphenol A) in PGME/PE (1/2 by weight) or acetone when not dissolved in PGME/PE was spin-coated on a silicon wafer which had been surface-treated with a silane coupling agent, to form a resist film with a thickness of about 0.05 μm.

[4] = Solubility in safety solvent; settings: 23° C.; PGMEA, PGME, ethyl lactate, butyl acetate, methyl 3-methoxypropionate, ethyl propionate
Procedure: The solubility of the compound B was tested at 23° C. using propylene glycol monomethyl ether acetate, propylene glycol monomethyl ether, ethyl lactate, butyl acetate, methyl 3-methoxypropionate and ethyl propionate. The sample was rated A when dissolved in any one of the above solvents in a concentration of 5 wt % or more, rated B when dissolved in a concentration of 0.1 to 5 wt %, and rated C when dissolved only in a concentration of less than 0.1 wt %.

[5] = Adhesion to silicon substrate; design: key: rated A when the film was not peeled from the silicon wafer; rated C when peeled off; settings: silicon wafer surface-treated with silane coupling agent
Procedure: The resist film formed in (2-2) was tested for its adhesion to the silicon wafer which was surface-treated with a silane coupling agent. The sample was rated A when the film was not peeled from the silicon wafer, and rated C when peeled off.

absorptivity coefficient at 248 nm [1]	Glass transition temperature Rating ([2]; DSC)	Glass transition temperature ([2]; DSC)	Crystallization temperature ([2]; DSC, exothermic peak)	film-forming property [3]	Adhesion to silicon substrate [5]	SMILES	Glass transition temperature-Crystallization temperature [2]	Solubility to safety solvent [4]
43.4 L/cm/g	C (rated C when meeting Tg≦130° C.)	116 °C	190 °C			Cc1cc(O)c(C(C)C)cc1C(c1ccc2cc(C(c3cc(C(C)C)c(O)cc3C)c3cc(C(C)C)c(O)cc3C)ccc2c1)c1cc(C(C)C)c(O)cc1C [Compound 103]	A (rated A when meeting (glass transition temperature)−(crystallization temperature)≧70° C.)	
47.4 L/cm/g	A (rated A when meeting Tg≧130° C.)	156 °C				Cc1cc(C(c2ccc3ccc(C(c4cc(C)c(O)c(C)c4C)c4cc(C)c(O)c(C)c4C)cc3c2)c2cc(C)c(O)c(C)c2C)c(C)c(C)c1O [Compound 105]	A (rated A when meeting (glass transition temperature)−(crystallization temperature)≧70° C.)	
16.9 L/cm/g	A (rated A when meeting Tg≧130° C.)	125 °C				Cc1cc(C(c2cc(C(c3cc(C)c(O)c(C)c3C)c3cc(C)c(O)c(C)c3C)cc(C(c3cc(C)c(O)c(C)c3C)c3cc(C)c(O)c(C)c3C)c2)c2cc(C)c(O)c(C)c2C)c(C)c(C)c1O [Compound 108]	A (rated A when meeting (glass transition temperature)−(crystallization temperature)≧70° C.)	
				A	A	CCOC(C)Oc1ccc(C(C)(c2ccc(O)c(C)c2)c2ccc3ccccc3c2)cc1C (stereo not shown) [Compound 207, reference compound]		A (rated A when dissolved in any one of the above solvents in a concentration of 5 wt % or more)
				A	A	Cc1cc(C(C)(c2ccc(OC(C)OC3CCCCC3)c(C)c2)c2ccc3ccccc3c2)ccc1O (stereo not shown) [Compound 208, reference compound]		A (rated A when dissolved in any one of the above solvents in a concentration of 5 wt % or more)
